Laboratory results reported in ChEMBL document CHEMBL5715935 (Int J Cancer, 2002).
Calls of active or inactive are those of the source. The rule behind the calls is not given here.

What was measured:
[1] = system: LoVo; test: Induction of cell death in human LoVo cells assessed as S phase of the cell cycle at 20 uM incubated for 24 hrs by TUNEL staining based flow cytometry analysis; format: functional
[2] = system: LoVo; test: Induction of cell death in human LoVo cells assessed as decrease in total cell numbers at 20 uM incubated for 48 hrs by TUNEL staining based flow cytometry analysis; format: functional
[3] = system: MES-SA/Dx5; test: Antitumor activity against human MES-SA/Dx5 cells xenografted CD1 nude mouse assessed as reduction in tumor volume at 200 mg/kg, po administered 3 times per day at 8 hrs intervals and measured upto 16 days; format: functional, organism-based; details: time <= 16.0 day
[4] = system: LoVo; test: Induction of cell death in human LoVo cells assessed as total cell numbers at 20 uM incubated after 8 hrs by TUNEL staining based flow cytometry analysis; format: functional
[5] = system: LoVo; test: Antitumor activity against human Lovo cells xenografted CD1 nude mouse assessed as low tumor volume at 100 mg/kg, ip administered 3 times per day at 8 hrs intervals for 19 days; format: functional, organism-based; details: time 19.0 day
[6] = system: LoVo; test: Induction of cell death in human LoVo cells assessed as sub-G1 phase of the cell cycle at 20 uM incubated for 24 hrs by TUNEL staining based flow cytometry analysis; format: functional
[7] = biological target: Mitogen-activated protein kinase 14 (Homo sapiens) (UniProt Q16539); test: Inhibition of human SAPK2A using myelin as substrate at 20 uM in presence of gamma-32P-ATP by scintillation counter analysis
Mitogen-activated protein kinase 14 (Homo sapiens), sequence (Q16539 whole entry): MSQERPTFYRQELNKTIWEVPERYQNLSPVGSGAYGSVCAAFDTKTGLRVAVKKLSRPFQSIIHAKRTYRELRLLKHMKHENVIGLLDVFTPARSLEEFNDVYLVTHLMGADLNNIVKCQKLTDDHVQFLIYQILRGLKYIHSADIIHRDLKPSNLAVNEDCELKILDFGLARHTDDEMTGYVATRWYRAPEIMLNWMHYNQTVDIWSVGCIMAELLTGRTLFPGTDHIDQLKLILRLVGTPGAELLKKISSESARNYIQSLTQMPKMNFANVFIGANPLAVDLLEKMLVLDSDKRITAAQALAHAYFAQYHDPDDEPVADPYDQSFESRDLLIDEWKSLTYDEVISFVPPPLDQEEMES

[8] = Cytotoxicity against human HS27 cells assessed as inhibition of cell proliferation incubated for 72 hrs by MTT assay; format: toxicity, cell-based
[9] = system: LoVo; test: Induction of cell death in human LoVo cells assessed as G2/M phase of the cell cycle at 20 uM incubated for 24 hrs by TUNEL staining based flow cytometry analysis; format: functional
[10] = system: HCT-116; test: cells; details: Homo sapiens, HCT-116, 72 h
[11] = system: LoVo; test: Induction of cell death in human LoVo cells assessed as accumulation of cells in the cell cycle at 20 uM incubated for 24 hrs by PI staining based flow cytometry analysis; format: functional
[12] = system: LoVo; test: Antitumor activity against human Lovo cells xenografted CD1 nude mouse assessed as low tumor volume at 100 mg/kg, ip administered 3 times per day at 8 hrs intervals for 24 days; format: functional, organism-based; details: time 24.0 day
[13] = system: MES-SA/Dx5; test: Antitumor activity against human MES-SA/Dx5 cells xenografted CD1 nude mouse assessed as tumor volume at 500 mg/kg, po administered 3 times per day at 8 hrs intervals and measured on 7 day; format: functional, organism-based
[14] = system: MES-SA; test: Cytotoxicity against human MES-SA cells assessed as inhibition of cell proliferation incubated for 72 hrs by MTT assay; format: functional, cell-based
[15] = system: HepG2; test: Cytotoxicity against p53 wild-type human HepG2 cells assessed as inhibition of cell proliferation incubated for 72 hrs by MTT assay; format: functional, cell-based; details: HepG2, 72 h
[16] = system: MES-SA/Dx5; test: Cytotoxicity against human MES-SA/Dx5 cells assessed as inhibition of cell proliferation incubated for 72 hrs by MTT assay; format: functional, cell-based; details: MES-SA/Dx5, 72 h
[17] = Cytotoxicity against human IMR-90 cells assessed as inhibition of cell proliferation incubated for 72 hrs by MTT assay; format: toxicity, cell-based
[18] = system: ChaGo-K-1; test: Cytotoxicity against human ChaGo-K-1 cells assessed as inhibition of cell proliferation incubated for 72 hrs by MTT assay; format: functional, cell-based; details: ChaGo-K-1, 72 h
[19] = system: HT-1376; test: Cytotoxicity against p53 mutant human HT-1376 cells assessed as inhibition of cell proliferation incubated for 72 hrs by MTT assay; format: functional, cell-based; details: HT-1376, 72 h
[20] = system: LoVo; test: Induction of cell death in human LoVo cells assessed as G1 phase of the cell cycle at 20 uM incubated for 24 hrs by TUNEL staining based flow cytometry analysis; format: functional
[21] = system: MIA PaCa-2; test: Cytotoxicity against human MIA PaCa-2 cells assessed as inhibition of cell proliferation incubated for 72 hrs by MTT assay; format: functional, cell-based; details: MIA PaCa-2, 72 h
[22] = biological target: cAMP-dependent protein kinase (PKA) (Homo sapiens) (UniProt P22694+P17612+P22612); test: Inhibition of human PKA at 20 uM; format: protein assay
[23] = system: MES-SA/Dx5; test: Antitumor activity against human MES-SA/Dx5 cells xenografted CD1 nude mouse assessed as T/C ratio at 500 mg/kg, po administered 3 times per day at 8 hrs intervals and measured at 11 day relative to control; format: functional
[24] = system: NCI-H69; test: Cytotoxicity against p53 mutant human NCI-H69 cells assessed as inhibition of cell proliferation incubated for 72 hrs by MTT assay; format: functional, cell-based; details: NCI-H69, 72 h
[25] = system: A498; test: Cytotoxicity against p53 wild-type human A498 cells assessed as inhibition of cell proliferation incubated for 72 hrs by MTT assay; format: functional, cell-based; details: A498, 72 h
[26] = system: LoVo; test: Induction of cell death in human LoVo cells assessed as increase in total cell numbers at 20 uM incubated upto 24 hrs by TUNEL staining based flow cytometry analysis; format: functional
[27] = system: LoVo; test: Cytotoxicity against p53 wild-type human LoVo cells assessed as inhibition of cell proliferation incubated for 72 hrs by MTT assay; format: functional, cell-based
[28] = system: MES-SA/Dx5; test: Antitumor activity against human MES-SA/Dx5 cells xenografted CD1 nude mouse assessed as tumor volume at 500 mg/kg, po administered 3 times per day at 8 hrs intervals and measured on 4 day; format: functional, organism-based
[29] = system: MES-SA/Dx5; test: Antitumor activity against human MES-SA/Dx5 cells xenografted CD1 nude mouse assessed as T/C ratio at 200 mg/kg, po administered 3 times per day at 8 hrs intervals for 10 days and measured at day 11 relative to control; format: functional; details: time 11 day
[30] = system: LoVo; test: Induction of cell death in human LoVo cells assessed as increase in the number of cells with a sub-G1 DNA content at 20 uM incubated for 24 hrs by PI staining based flow cytometry analysis; format: functional
[31] = system: LoVo; test: Antitumor activity against human Lovo cells xenografted CD1 nude mouse assessed as reduction in tumor volume at 100 mg/kg, ip administered 3 times per day at 8 hrs intervals for 5 days relative to control; format: functional; parameters: scale not given: the % may be the effect or the level left; details: time 5 day
[32] = system: ACHN; test: Cytotoxicity against p53 wild-type human ACHN cells assessed as inhibition of cell proliferation incubated for 72 hrs by MTT assay; format: functional, cell-based
[33] = system: HT-29; test: Cytotoxicity against p53 mutant human HT-29 cells assessed as inhibition of cell proliferation incubated for 72 hrs by MTT assay; format: functional, cell-based; details: HT-29, 72 h
[34] = system: A549; test: Cytotoxicity against p53 wild-type human A549 cells assessed as inhibition of cell proliferation incubated for 72 hrs by MTT assay; format: functional, cell-based; details: A549, 72 h
[35] = system: MES-SA/Dx5; test: Antitumor activity against human MES-SA/Dx5 cells xenografted CD1 nude mouse assessed as time for tumor growth delay at 200 mg/kg, po administered 3 times per day at 8 hrs intervals for 10 days; format: functional; details: time 10 day
[36] = system: MIA PaCa-2; test: Cytotoxicity against p53 wild-type human MIA PaCa-2 cells assessed as inhibition of cell proliferation incubated for 72 hrs by MTT assay; format: functional, cell-based; details: MIA PaCa-2, 72 h
[37] = system: MES-SA/Dx5; test: Antitumor activity against human MES-SA/Dx5 cells xenografted CD1 nude mouse assessed as tumor volume at 500 mg/kg, po administered 3 times per day at 8 hrs intervals and measured on 11 day; format: functional, organism-based
[38] = biological target: Protein kinase C (PKC) (Homo sapiens) (UniProt O94806+P41743+P17252+P05129+Q05655+P05771+Q05513+Q02156+P24723+Q15139+Q04759); test: Inhibition of human PKC at 20 uM; format: protein assay
[39] = system: MIA PaCa-2; test: Cytotoxicity against p53 mutant human MIA PaCa-2 cells assessed as inhibition of cell proliferation incubated for 72 hrs by MTT assay; format: functional, cell-based; details: MIA PaCa-2, 72 h
[40] = system: LoVo; test: Antitumor activity against human Lovo cells xenografted CD1 nude mouse assessed as T/C ratio at 100 mg/kg, ip administered 3 times per day at 8 hrs intervals for 5 days relative to control; format: functional; details: time 5 day
[41] = system: NCI-H460; test: Cytotoxicity against p53 wild-type human NCI-H460 cells assessed as inhibition of cell proliferation incubated for 72 hrs by MTT assay; format: functional, cell-based; details: NCI-H460, 72 h
[42] = system: LoVo; test: Antitumor activity against human Lovo cells xenografted CD1 nude mouse assessed as relative tumor volume at 100 mg/kg, ip administered 3 times per day at 8 hrs intervals for 5 days; format: functional; details: time 5 day
[43] = system: DU-145; test: Cytotoxicity against p53 mutant human DU-145 cells assessed as inhibition of cell proliferation incubated for 72 hrs by MTT assay; format: functional, cell-based; details: DU-145, 72 h
[44] = system: LoVo; test: Antitumor activity against human Lovo cells xenografted CD1 nude mouse assessed as low tumor volume at 100 mg/kg, ip administered 3 times per day at 8 hrs intervals for 16 days; format: functional, organism-based; details: time 16.0 day
[45] = system: HCT-15; test: Cytotoxicity against p53 mutant human HCT-15 cells assessed as inhibition of cell proliferation incubated for 72 hrs by MTT assay; format: functional, cell-based; details: HCT-15, 72 h
[46] = system: LoVo; test: Antitumor activity against human Lovo cells xenografted CD1 nude mouse assessed as time for tumor growth delay at 100 mg/kg, ip administered 3 times per day at 8 hrs intervals for 5 days; format: functional; details: time 5 day
[47] = system: MES-SA/Dx5; test: Antitumor activity against human MES-SA/Dx5 cells xenografted CD1 nude mouse assessed as time for tumor growth delay at 500 mg/kg, po administered 3 times per day at 8 hrs intervals for 4 days; format: functional; details: time 4 day
[48] = system: LoVo; test: Antitumor activity against human Lovo cells xenografted CD1 nude mouse assessed as low tumor volume at 100 mg/kg, ip administered 3 times per day at 8 hrs intervals for 32 days; format: functional, organism-based; details: time 32.0 day

**Q.** Which results are given for `CC[C@H](CO)Nc1nc(NCc2ccccc2)c2ncn(C(C)C)c2n1` [SELICICLIB]?
**A.** Activity [1]: Active; Activity [2]: Active; Activity [3]: inactive; Activity [4]: Active; Activity [5]: Active; Activity [6]: Active; inhibition [7]: inactive; IC50 at 72 h [8]: 22.2 µM; Activity [9]: Active; IC50 [10]: 10.7 µM; Activity [11]: inactive; Activity [12]: Active; Activity [13]: Active; IC50 [14]: 11.9 µM; IC50 [15]: 11.3 µM; IC50 [16]: 7.9 µM; IC50 at 72 h [17]: > 100 µM; IC50 [18]: 30.2 µM; IC50 [19]: 18.4 µM; Activity [20]: Active; IC50 [21]: 15.2 µM; inhibition [22]: inactive; T/C [23]: 47.3%; IC50 [24]: 26 µM; IC50 [25]: 13.2 µM; Activity [26]: Active; IC50 [27]: 9.3 µM; Activity [28]: Active; Activity [29]: 85.7%; Activity [30]: Active; Activity [31]: 44.8%; IC50 [32]: 11.9 µM; IC50 [33]: 14.6 µM; IC50 [34]: 15.9 µM; Time [35]: 1.3 days; IC50 [36]: 12 µM; Activity [37]: Active; inhibition [38]: inactive; IC50 [39]: 13.9 µM; T/C [40]: 58.3%; IC50 [41]: 13.1 µM; Activity [42]: 4.8; IC50 [43]: 18.8 µM; Activity [44]: Active; IC50 [45]: 18.3 µM; Time [46]: 1.4 days; Time [47]: 1.7 days; Activity [48]: Active
